Test results: PubChem BioAssay AID1963970 (Molecular Pharmacology Branch, DTP, NCI, 2024)
Where “and” joins values, the source holds several entries; their conditions need not be identical. Identical values can stand only once.

System: 931267-113-T-J1-PDC multicell spheroid viability
Assay: Anticancer human tumor 931267-113-T-J1-PDC patient-derived colon adenocarcinoma cell line growth inhibition [PI3K]
Details: for viability, T/C: stronger effect = lower value; active = viability on the fitted dose curve at most 10% of control; inactive = the rest
From the text: Combinatorial screen of targeted agents with the PI3K inhibitors inavolisib, alpelisib, duvelisib, and copanlisib in multi-cell type tumor spheroids
A high-throughput screen of multi-cell type tumor spheroids was designed to identify active combinations of targeted small molecules and PI3K pathway inhibitors. Complex spheroids include a stromal component modeled by human endothelial cells (HUVEC) and fibroblasts modeled by human mesenchymal stem cells (MSCs). The concentration ranges selected for each drug and investigational agent were based upon clinically achievable concentrations if the clinical Cmax of the agent was known.
Compounds. The drugs and investigational agents: inavolisib (NSC800729), alpelisib (NSC765974), duvelisib (NSC772469), copanlisib (NSC816437), ipatasertib (NSC767898), afuresertib (NSC778305), talazoparib (NSC767125), sapanisertib (NSC764658), selumetinib (NSC741078), tovorafenib (DAY101, NSC766906), vemurafenib (NSC761431), ravoxertinib (NSC781343), sotorasib (NSC818433), MRTX1133 (NSC 836407), abemaciclib (NSC 768073), palbociclib (NSC758247), venetoclax (NSC 766270), SY5609 (NSC837396), enzalutamide (NSC755605), and darolutamide (NSC825331), were obtained from the National Cancer Institute (NCI) Developmental Therapeutics Program Chemical Repository. The FDA-approved anticancer drug set is available from the NCI Developmental Therapeutics Program. […] The stock solutions were prepared in dimethyl sulfoxide (DMSO, Sigma-Aldrich, St. Louis, MO, cat. D2650) at 800-fold the tested concentration and stored at -70 degrees C prior to their use. All drugs and investigational agents were tested over a range starting from a high concentration at or near the clinical Cmax and decreasing in half-log increments. If the clinical Cmax for an agent had not been determined, the highest concentration tested was 10 microM.
Cell Culture. All cells were maintained in an incubator at 37 degrees C and 5% CO2 with 95% humidity. The PDC lines were cultured according to standard operating procedures established by the NCI PDMR (https://pdmr.cancer.gov/sops/default.htm). All PDCs were thawed and cultured in Matrigel-coated flasks prepared with a working solution of 1X Ham's F-12 nutrient mix, without supplementation (Invitrogen, Waltham, MA, cat. 11765054), 100 U/mL penicillin-streptomycin (Invitrogen, cat. 15140122), and 2.5% Matrigel (Corning Inc., Corning, NY, cat. 354248) for the first three passages. The 354836-022-R-J1-PDC, 475296-252-R-J1-PDC, and 997726-040-R-J2-PDC lines were cultured in 6A media, which includes advanced DMEM/F-12 (Thermo Fisher Scientific, cat. 12634028), 10 mM HEPES (Thermo Fisher Scientific, cat. 15630080), 1X GlutaMAX supplement (Thermo Fisher Scientific, cat. 35050061), 0.1 mg/mL primocin (InvivoGen, San Diego, CA, cat. ant-pm-2), 10% defined fetal bovine serum, heat inactivated (HyClone Laboratories Inc., Logan, UT, cat. SH30070.03HI), 50% L-WRN conditioned media (ATCC, cat. CRL-3276), 1.25 mM N-Acetyl-L-cysteine (Sigma-Aldrich, cat. A9165), 10 mM nicotinamide (Sigma-Aldrich, cat. N0636), 1X B-27 supplement (Thermo Fisher Scientific, cat. 17504044), 1X N-2 supplement (Thermo Fisher Scientific, cat. 17502048), and 10 microM Y-27632 dihydrochloride (Tocris Bioscience, Bristol, United Kingdom, cat. 1254). The 624824-186-R-J2-PDC line was cultured in 6C/Colon 1B media, which includes all 6A media components plus 50 ng/mL human EGF recombinant protein (Thermo Fisher Scientific, cat. PHG0311). […]

[1] = curve of first compound, second compound 0.00316 µM
[2] = curve of first compound, second compound 0.01 µM
[3] = curve of first compound, second compound 0.0316 µM
[4] = curve of first compound, second compound 0.1 µM
[5] = curve of first compound, second compound 0.316 µM
[6] = curve of first compound, second compound 1 µM
[7] = second compound 0.00316 µM, first compound 0.0316 µM
[8] = second compound 0.00316 µM, first compound 0.1 µM
[9] = second compound 0.00316 µM, first compound 0.316 µM
[10] = second compound 0.00316 µM, first compound 1 µM
[11] = second compound 0.00316 µM, first compound 3.16 µM
[12] = second compound 0.00316 µM, first compound 10 µM
[13] = second compound 0.01 µM, first compound 0.0316 µM
[14] = second compound 0.01 µM, first compound 0.1 µM
[15] = second compound 0.01 µM, first compound 0.316 µM
[16] = second compound 0.01 µM, first compound 1 µM
[17] = second compound 0.01 µM, first compound 3.16 µM
[18] = second compound 0.01 µM, first compound 10 µM
[19] = second compound 0.0316 µM, first compound 0.0316 µM
[20] = second compound 0.0316 µM, first compound 0.1 µM
[21] = second compound 0.0316 µM, first compound 0.316 µM
[22] = second compound 0.0316 µM, first compound 1 µM
[23] = second compound 0.0316 µM, first compound 3.16 µM
[24] = second compound 0.0316 µM, first compound 10 µM
[25] = second compound 0.1 µM, first compound 0.0316 µM
[26] = second compound 0.1 µM, first compound 0.1 µM
[27] = second compound 0.1 µM, first compound 0.316 µM
[28] = second compound 0.1 µM, first compound 1 µM
[29] = second compound 0.1 µM, first compound 3.16 µM
[30] = second compound 0.1 µM, first compound 10 µM
[31] = second compound 0.316 µM, first compound 0.0316 µM
[32] = second compound 0.316 µM, first compound 0.1 µM
[33] = second compound 0.316 µM, first compound 0.316 µM
[34] = second compound 0.316 µM, first compound 1 µM
[35] = second compound 0.316 µM, first compound 3.16 µM
[36] = second compound 0.316 µM, first compound 10 µM
[37] = second compound 1 µM, first compound 0.0316 µM
[38] = second compound 1 µM, first compound 0.1 µM
[39] = second compound 1 µM, first compound 0.316 µM
[40] = second compound 1 µM, first compound 1 µM
[41] = second compound 1 µM, first compound 3.16 µM
[42] = second compound 1 µM, first compound 10 µM
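Note: viability read 7 days after compound addition.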

Cc1nc(NC(=O)N2CCCC2C(N)=O)sc1-c1ccnc(C(C)(C)C(F)(F)F)c1 (configuration not stated)
> 10 µM: IC50 (compound alone, run of 05/08/2023)
inactive: viability, T/C (compound 0.0316 µM) 99.6% [middle of 7 runs] | viability, T/C (compound 0.1 µM) 94.8% [middle of 7 runs] | viability, T/C (compound 0.316 µM) 84.8% [middle of 7 runs] | viability, T/C (compound 1 µM) 80.8% [middle of 7 runs] | viability, T/C (compound 3.16 µM) 74.6% [middle of 7 runs] | viability, T/C (compound 10 µM) 63.1% [middle of 7 runs]

Cn1nccc1Nc1nccc(-c2ccn(C(CO)c3ccc(Cl)c(F)c3)c(=O)c2)n1 (configuration not stated) + COc1c(OCCCN2CCOCC2)ccc2c3n(c(=NC(=O)c4cnc(N)nc4)nc12)CCN3
inactive: viability, T/C [7] 94.7% | viability, T/C [8] 82.3% | viability, T/C [9] 83.2% | viability, T/C [10] 77.4% | viability, T/C [11] 52.2% | viability, T/C [12] 32.1% | viability, T/C [13] 97.6% | viability, T/C [14] 98% | viability, T/C [15] 79.2% | viability, T/C [16] 67.5% | viability, T/C [17] 48.5% | viability, T/C [18] 22.4% | viability, T/C [19] 79.7% | viability, T/C [20] 77% | viability, T/C [21] 68% | viability, T/C [22] 55.6% | viability, T/C [23] 30.6% | viability, T/C [24] 16.1% | viability, T/C [25] 70% | viability, T/C [26] 67.4% | viability, T/C [27] 52.4% | viability, T/C [28] 37.4% | viability, T/C [29] 21.9% | viability, T/C [30] 10.3% | viability, T/C [31] 42.7% | viability, T/C [32] 40.2% | viability, T/C [33] 35% | viability, T/C [34] 23.7% | viability, T/C [35] 13.8% | viability, T/C [37] 32.7% | viability, T/C [38] 29.6% | viability, T/C [39] 27.3% | viability, T/C [40] 18.4% | viability, T/C [41] 9.42%
2.74 µM: IC50 [2]
3.81 µM: IC50 [1]
1.22 µM: IC50 [3]
0.413 µM: IC50 [4]
active: viability, T/C [36] 6.64% | viability, T/C [42] 5.13%
< 0.0316 µM: IC50 [5] | IC50 [6]

CC(C)NCC(C(=O)N1CCN(c2ncnc3c2C(C)CC3O)CC1)c1ccc(Cl)cc1 (configuration not stated) + CC(Nc1ccc2c(c1)OCCn1cc(N3C(=O)OCC3C(F)F)nc1-2)C(N)=O
> 10 µM: IC50 [1] | IC50 [2] | IC50 [3] | IC50 [4] | IC50 [5] | IC50 [6]
inactive: viability, T/C [7] 91% | viability, T/C [8] 90.8% | viability, T/C [9] 92.9% | viability, T/C [10] 95.5% | viability, T/C [11] 86.8% | viability, T/C [12] 67.3% | viability, T/C [13] 102% | viability, T/C [14] 94.3% | viability, T/C [15] 97.2% | viability, T/C [16] 95.2% | viability, T/C [17] 83.5% | viability, T/C [18] 69.8% | viability, T/C [19] 103% | viability, T/C [20] 105% | viability, T/C [21] 99.2% | viability, T/C [22] 94.8% | viability, T/C [23] 96.4% | viability, T/C [24] 69.9% | viability, T/C [25] 101% | viability, T/C [26] 95.7% | viability, T/C [27] 97.9% | viability, T/C [28] 96.2% | viability, T/C [29] 84.2% | viability, T/C [30] 64.7% | viability, T/C [31] 85.3% | viability, T/C [32] 84.5% | viability, T/C [33] 83.7% | viability, T/C [34] 85.4% | viability, T/C [35] 80.5% | viability, T/C [36] 66.7% | viability, T/C [37] 73% | viability, T/C [38] 75.4% | viability, T/C [39] 72.1% | viability, T/C [40] 76% | viability, T/C [41] 82.9% | viability, T/C [42] 59.9%

CCCS(=O)(=O)Nc1ccc(F)c(C(=O)c2c[nH]c3ncc(-c4ccc(Cl)cc4)cc23)c1F
active: viability, T/C (compound 10 µM) 5.21% [middle of 4 runs]
inactive: viability, T/C (compound 0.0316 µM) 102% (2×) and 106% and 94% | viability, T/C (compound 0.1 µM) 116% (2×) and 93.5% and 96.7% | viability, T/C (compound 0.316 µM) 109% [middle of 4 runs] | viability, T/C (compound 1 µM) 129% [middle of 4 runs]
6.15 µM [middle of 4 runs]: IC50 (curve of compound)
